Entries after “also recorded” stand apart in the source; their conditions may differ.
Experiments:
hOR17-4 = test: Ca2+ imaging (Fura-2) of HEK293 cells transiently transfected with pOR17-4 (chimeric receptor); type: cell-based, human
From the text: Es wird vermutet, dass die Transmembrandomänen III-VI eine Bindungstasche zum Binden von Agonisten bilden (s. S. Firestein, Nature 413, 211-218 (2001)). Um diese Vermutung für den Rezeptor hOR17-4 zu überprüfen wurde ein für die vermuteten Transmembrandomänen III bis VI codierender Abschnitt der für hOR17-4 codierenden cDNA in einem Shuttle-Expressions-Vektor (pOLF-Express) kloniert. Der Expressionsvektor pOLF-Express umfasst die für die N- und C-terminalen Regionen von hOR17-40 codierenden DNA-Abschnitte (C. H. Wetzel et al., Journal of Neuroscience 19, 7426-7433 (1999)). Das resultierende chimäre Rezeptorprotein sollte die Agonistenspezifität des vollständigen Rezeptors hOR17-4 besitzen.
HEK293-Zellen wurden in MEM (Life Technologies, Gaithersburg, MD), das mit 10 % hitze-inaktiviertem fetalem Kälber-Serum angereichert war, in einem Inkubator bei 37 °C in einer Atmosphäre aus 95 % befeuchteter Luft und 5 % CO2 kultiviert. Semikonfluente Zellen wurden in 35 mm Gefäßen (Falcon) mittels Calciumphosphat-Präzipitation (Zufall et al., PNAS 90 (1993), 9335-9339) unter Verwendung jeweils des Plasmids pOR17-4 bzw. pOR17-4v transfiziert. Die Transfektionseffizienz - typischerweise 10 % - wurde histochemisch mit dem Reporterplasmid pCH110 (Pharmacia, Uppsala, Schweden) überprüft, das für β-Galactosidase codiert. Messungen wurden 48 bis 72 Stunden nach der Transfektion durchgeführt. Die Transfektionseffizienz kann mit einem für GFP, einem grün fluoreszierenden Protein, codierenden Reporterplasmid ebenfalls überprüft werden.
Die Rezeptor-Aktivierung in HEK293-Zellen führt zu einem vorübergehenden Anstieg der cytosolischen Ca^2+-Konzentration, die auf der Einzelzell-Ebene unter Verwendung des Ca^2+-sensitiven Farbstoffes Fura-2 (Fura-2 AM, Molecular Probes Europe BV, Leiden, Niederlande; Ladekonzentration 3-4 µg/ml; Ladezeit ca. 30 min) und ratiofluorometrischen Bildgebungstechniken (Imaging-Experimente) detektiert wurden.
Die Ca^2+-imaging-Experimente wurden auf dem Träger eines invertierten Zeiss-Mikroskopes durchgeführt, das für die ratiofluorometrische Bildgebung mit einer Xenon-Bogenlampe, einem Vielfach-Wellenlängen-Illuminations-System POLYCH-ROM II zur Anregung, einer gekühlten charge-coupled device (CCD)-Kamera und einer WinNT-basierten T.I.L.L.-Vision-Software zum Sammeln und raum- und zeitabhängigen Quantifizieren Ca^2+-abhängiger Fluoreszenz-Signale (F340/F380-Verhältnis) ausgestattet war. HEK293-Zellen wurden mit 32-facher, Spermazellen mit 63-facher Vergrößerung beobachtet.
HEK293- und Spermazellen wurden unter Verwendung eines speziellen Applikations-Systems, das es gestattete, vorübergehend alle Zellen im Blickfeld aus einem von sechs benutzergewählten Kapillarröhrchen zu überspülen, Geruchs- und/oder Wirkstoffen (Testlösungen) ausgesetzt. Der Wechsel zwischen den Testlösungen erfolgte nahezu sofort; auch trat im Wesentlichen keine Wirkungsverzögerung nach dem Wechsel auf, weil die Röhrchenspitzen zum optischen Feld eng benachbart waren. Zwischen den Applikationen von Testlösungen überspülte ein Pufferlösungsstrom kontinuierlich alle Zellen im Gefäß, um jedwede potentielle Hintergrund-Anreicherung von Testlösungen (Geruchs- bzw. Wirkstoffen) zu minimieren. Alle Lösungen wurden bei Raumtemperatur appliziert. Alle verwendeten Geruchsstoffe stammten von Dr. T. Gerke, Henkel KGaA, Düsseldorf, FRG, andere Wirkstoffe wurden von Sigma gekauft. Zur Zusammensetzung der Henkel 100-Mischung vergleiche C. H. Wetzel et al., Journal of Neuroscience 19, 7426-7433 (1999).
Alle auf die potentielle Aktivierung von hOR17-4 untersuchten Geruchsstoffe wurden wenigstens in drei verschiedenen Reihen von Transfektionsexperimenten getestet. […] Geruchsstoffe, die nicht in wenigstens 2 % aller HEK293-Zellen messbare Ca^2+-Konzentrationssteigerung auslösten, wurden nicht zu den hOR17-4-spezifischen Agonisten gezählt, ebenso diejenigen wenigen der untersuchten Komponenten, die ein unspezifisches Ca^2+-Signal in fast jeder Zelle hervorriefen. […]

hOR17-40 = biological target: T1, hOR17-40 (Homo sapiens, UniProt P47881); test: Ca2+ imaging of HEK293 cells transfected with pOR17-40; type: cell-based
T1 construct: pOR17-40 (Ausschnitt) mit der vollständigen cDNA von hOR17-40; expressed in transfected cells; host or cells: HEK293, plasmid pOR17-40
T1 sequence (P47881 1-315): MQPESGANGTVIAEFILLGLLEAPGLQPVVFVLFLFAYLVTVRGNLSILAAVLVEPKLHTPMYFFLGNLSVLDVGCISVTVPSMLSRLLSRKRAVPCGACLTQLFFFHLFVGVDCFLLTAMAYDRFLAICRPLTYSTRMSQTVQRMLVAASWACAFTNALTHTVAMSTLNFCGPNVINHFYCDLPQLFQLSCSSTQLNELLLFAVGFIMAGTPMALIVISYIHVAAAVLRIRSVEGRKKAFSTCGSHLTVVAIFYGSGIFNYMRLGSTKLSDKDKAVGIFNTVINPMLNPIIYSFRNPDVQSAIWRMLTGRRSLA

Row | Compound | Induktion einer Ca^2+-Konzentrationssteigerung (hOR17-4; agonist concentration reduced to 10^-6 M) | Wirksamkeit (Rangordnung der Agonisten) (hOR17-4; ranking by amplitude normalised to ATP and by responding cells relative to Cyclamal ca. 5 mM) | Rezeptoraktivierung (Ca^2+-Antwort) (hOR17-4; single odorant about 500 µM, pOR17-4-transfected HEK293 cells) | Ca^2+-Signale (hOR17-40) (hOR17-40) | Zellen, die auf Bourgeonal antworteten, mit vollständig inhibierter Rezeptoraktivierung (hOR17-4; pre-incubation 30 s or longer before Bourgeonal) | Einfluss auf die hOR17-4-Rezeptoraktivierung durch Bourgeonal (hOR17-4; single components of Mix D, pre-incubation) | inhibitorischer Effekt auf das Helional-induzierte Antwortmuster (hOR17-40; pre-incubation)
1 | CC(C)(C)c1ccc(CCC=O)cc1 [Bourgeonal] | deutlich | wirksamere Agonisten; also recorded: der wirksamste getestete Agonist | Fähigkeit der Substanzen, den Rezeptor zu aktivieren | keine Ca^2+-Signale | – | – | –
2 | CCCCCCCCCCC=O [n-Undecanal] | – | – | – | – | 26 von 28 | vollständig inhibiert | keinen inhibitorischen Effekt

Source: EP1551873B1, “AGONISTS AND ANTAGONISTS OF THE HUMAN ODORANT RECEPTOR OR17-4 AND USES THEREOF” (Symrise AG, priority 2002, dated 2004)
